Laboratory results as given in patent US4612311A, “1,2,4-benzothiadiazine oxide derivatives” (Warner-Lambert Company, priority 1984, dated 1986).

Key:
[1] = target: benzodiazepine rec.; experiment: Receptor binding: benzodiazepine rec.
[2] = Ataxia threshold; format: in vivo, male mice (NMRI); settings: oral, ">": no effect up to this highest examined dosage
Description: (§1) Experimental animals used were male mice (NMRI, origin: Ivanovas, Kissleg) of weight 18 to 25 g. The animals were allowed food and water ad lib.. but, according to the test, they were fasted for two to 16 hours before the beginning of the test with water allowed ad lib.
(§2) The substances under test were applied orally by means of a stomach tube in a 0.8% methocel suspension 30 minutes before the start of the test.

[3] = Effect on duration of hexobarbital anesthesia (hypnotic activity); format: in vivo, male mice (NMRI); settings: hexobarbital sodium 70 mg/kg i.v.
Description: as §1, §2
Seventy mg/kg (10 ml/kg body weight) of hexobarbital sodium were injected into a tail vein within a period of 15 seconds. Ten animals were used per dose. The criterion for the end of anesthesia was the moment when the animal roused itself from lying on its side. The average duration of anesthesia in the control animals was taken as 100 and the increases measured were calculated as a percentage of this value.

[4] = Punished exploratory behavior (4 plate test), anxiolytic activity; format: in vivo, male mice (NMRI); settings: for Anxiolytic Activity (punished exploration), increase: 30 min before test, control = 100%
Description: as §1, §2
(§3) The model for testing for anxiolytic activity is based on the experimental creation of a conflict in the animals by counteracting the natural exploratory tendencies of the animals with an anxiety-inducing stimulus (aversive foot shock, aversive illumination).
The test box has a metal base consisting of four rectangles of equal size. After placing the animal in the box it can freely explore for 15 seconds. Then every transition from one metal plate of the base to another is punished by a mild foot shock (1.5 mA for 0.5 seconds). The number of tolerated foot shocks within one minute is the measure of the anxiolytic activity of the substance. The average number of accepted foot shock by the control animals was taken as 100%. Ten animals were examined per dose.

[5] = Motility test (spontaneous motility); format: in vivo, male mice (NMRI); settings: 30 min
Description: as §1, §2
The spontaneous motility was measured simultaneously for a test group of five animals each for 30 minutes in two opaque cages (length 50 cm, width 25 cm, height 30 cm) using three infrared light barriers in each case. The sum of the impulses registered for the control group during this period was taken as 100% and the deviation in the case of the test group from this value was calculated in percent.

[6] = LD50; set-up: species or system male mice (NMRI); settings: mouse, in vivo; oral; ">": no effect up to this highest examined dosage
Description: as §1, §2

[7] = Unpunished exploratory behavior (light-dark preference), anxiolytic activity; format: in vivo, male mice (NMRI); settings: 30 min before test, control = 100%
Description: as §1, §2, §3
The testing equipment consists of a larger, brightly illuminated compartment and a smaller dark compartment. The animal is placed in the dark compartment and observed for ten minutes. The number of transitions between the compartments and the time spent in the two compartments are measured. The average number of transitions between the compartments of the control animals is taken as 100%. Ten animals were tested per dose.

[8] = system: benzodiazepine rec.; experiment: GABA-Ratio, benzodiazepine receptor binding; settings: in words

SMILES	Kd [1]	Ataxia Threshold [2]	Hypnotic Activity (increase in sleep time) ([3]; 25 mg/kg oral)	LD50 [6]	GABA-Ratio, agonist character [8]	Anxiolytic Activity (punished exploration), increase ([4]; 15 mg/kg oral)	also measured
O=S1(c2ccccc2)=Nc2ncnn2-c2cc(Cl)c(Br)cc21 (racemic) [Example 4b, (±)-7-Bromo-8-chloro-5-phenyl-[1,2,4]triazolo[5,1-c][1,2,4]benzothiadiazine-5-oxide]	100 µM	> 400 mg/kg	21%	> 400 mg/kg			Anxiolytic Activity (punished exploration), increase ([4]; 12.5 mg/kg oral): 34%; Spontaneous Motility, increase ([5]; 12.5 mg/kg oral, control = 100%): 83%
CN1C(=O)CN=C(c2ccccc2)c2cc(Cl)ccc21 [Diazepam, reference compound]	0.064 µM	5 mg/kg					Anxiolytic Activity (unpunished exploration), increase ([7]; 2 mg/kg oral): 43%; Anxiolytic Activity (unpunished exploration), decrease ([7]; 5 mg/kg oral): 33%; Ataxia Threshold ([2]; listed as diazepam): approximately 5 mg/kg; Hypnotic Activity (increase in sleep time) ([3]; 2 mg/kg oral): 286%; Hypnotic Activity (increase in sleep time) ([3]; 4 mg/kg oral): 320%; Spontaneous Motility, decrease ([5]; 5 mg/kg oral, control = 100%): 67%
Cc1nc2n(n1)-c1ccc(Cl)cc1S(=O)(c1ccccc1Cl)=N2 (racemic) [Example 2c, (±)-7-Chloro-2-methyl-5-(2-chlorophenyl)[1,2,4]triazolo[5,1-c][1,2,4]benzothiadiazine-5-oxide]	0.02 µM	> 100 mg/kg		> 400 mg/kg	part. ago.		Hypnotic Activity (increase in sleep time) ([3]; 30 mg/kg oral): 96%; Anxiolytic Activity (punished exploration), increase ([4]; 30 mg/kg oral): 66%; Spontaneous Motility, increase ([5]; 30 mg/kg oral, control = 100%): 6%
O=S1(c2ccccc2)=Nc2ncnn2-c2ccc(Cl)cc21 (racemic) [Example 4a, (±)-7-Chloro-5-phenyl-[1,2,4]triazolo[5,1-c][1,2,4]benzothiadiazine-5-oxide]	3.5 µM	> 100 mg/kg		> 400 mg/kg	part. ago.	45%	Hypnotic Activity (increase in sleep time) ([3]; 100 mg/kg oral): 224%; Spontaneous Motility (effect in words) ([5]; 100 mg/kg oral): no effect
Cc1nc2n(n1)-c1ccc(Cl)cc1S(=O)(c1cccc(Cl)c1)=N2 (racemic) [Example 1c, (±)-7-Chloro-5-(3-chlorophenyl)-2-methyl-[1,2,4]triazolo[5,1-c][1,2,4]benzothiadiazine-5-oxide]	10 µM	> 100 mg/kg		> 400 mg/kg		35%	Hypnotic Activity (increase in sleep time) ([3]; 15 mg/kg oral): 6%; Spontaneous Motility, increase ([5]; 15 mg/kg oral, control = 100%): 12%
Cc1nc2n(n1)-c1ccc(Cl)cc1S(=O)(c1ccccc1)=N2 (racemic) [Example 1a, (±)-7-Chloro-2-methyl-5-phenyl-[1,2,4]triazolo[5,1-c][1,2,4]benzothiadizine-5-oxide]	1.5 µM	> 100 mg/kg	123%	1600 mg/kg	part. agonist		Hypnotic Activity (increase in sleep time) ([3]; 50 mg/kg oral): 175%; Anxiolytic activity (in words) ([4]; 7.5 to 45 mg/kg, compared with diazepam 1 to 4 mg/kg): comparable with that of diazapam (1 to 4 mg/kg)
